Target: human P2X7 (Homo sapiens (Human), UniProt Q99572)
Experiment: P2X7 antagonism in human PBMCs (IL-1β release after LPS + Bz-ATP, ELISA)
Assay type: cell-based
Conditions: for PBMC 10 μM (% control): test compound 10 μM

human P2X7, sequence (Q99572 whole entry): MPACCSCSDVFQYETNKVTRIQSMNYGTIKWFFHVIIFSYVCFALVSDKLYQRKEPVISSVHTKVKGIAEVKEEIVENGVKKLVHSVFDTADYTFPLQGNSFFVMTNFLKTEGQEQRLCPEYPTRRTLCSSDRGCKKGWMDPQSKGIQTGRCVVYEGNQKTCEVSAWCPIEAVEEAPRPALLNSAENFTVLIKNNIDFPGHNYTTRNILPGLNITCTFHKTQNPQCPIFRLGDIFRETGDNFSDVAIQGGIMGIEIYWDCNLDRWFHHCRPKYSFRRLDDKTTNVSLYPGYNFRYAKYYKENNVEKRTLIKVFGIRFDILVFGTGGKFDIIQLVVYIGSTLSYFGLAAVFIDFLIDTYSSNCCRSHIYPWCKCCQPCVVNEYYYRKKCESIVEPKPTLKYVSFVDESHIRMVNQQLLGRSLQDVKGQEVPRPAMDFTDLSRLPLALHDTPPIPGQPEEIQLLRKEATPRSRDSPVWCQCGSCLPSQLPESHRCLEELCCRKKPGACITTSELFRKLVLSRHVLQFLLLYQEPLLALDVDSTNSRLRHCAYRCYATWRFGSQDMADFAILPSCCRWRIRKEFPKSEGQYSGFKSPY

PBMC 10 μM (% control) (human PBMCs)	PBMC 10 μM (% control) (LPS 30 ng/ml + 0.5 mM Bz-ATP)	PBMC 1 μM (% control) (human PBMCs, test compound 1 μM)	Compound
2.1 % control	2.1 % control		C[C@@H]1c2ncn(-c3ccc(F)cc3)c2CCN1C(=O)c1cccc(C(F)(F)F)c1Cl (single isomer, unassigned) [Example 46, (4R*)-5-{[2-Chloro-3-(trifluoromethyl)phenyl]carbonyl}-1-(4-fluorophenyl)-4-methyl-4,5,6,7-tetrahydro-1H-imidazo[4,5-c]pyridine]
−1.1 % control			C[C@H]1c2ncn(-c3ccc(F)cc3)c2CCN1C(=O)c1cccc(C(F)(F)F)c1Cl (single isomer, unassigned) [Example 47]
−0.3 % control		5.2 % control	C[C@H]1c2nnn(-c3cnccn3)c2CCN1C(=O)c1cccc(C(F)(F)F)c1Cl (single isomer, unassigned) [Example 75, (4S*)-5-{[2-Chloro-3-(trifluoromethyl)phenyl]carbonyl}-4-methyl-1-pyrazin-2-yl-4,5,6,7-tetrahydro-1H-[1,2,3]triazolo[4,5-c]pyridine]
3.3 % control			C[C@H]1c2nnn(-c3ncccn3)c2CCN1C(=O)c1cccc(C(F)(F)F)c1Cl (single isomer, unassigned) [Example 87, (4S*)-5-{[2-Chloro-3-(trifluoromethyl)phenyl]carbonyl}-4-methyl-1-pyrimidin-2-yl-4,5,6,7-tetrahydro-1H-[1,2,3]triazolo[4,5-c]pyridine]
18.2 % control			CC1c2nnn(-c3ncccn3)c2CCN1C(=O)c1cccc(C(F)(F)F)c1Cl (single isomer, unassigned) [Example 88, (4R*)-5-{[2-Chloro-3-(trifluoromethyl)phenyl]carbonyl}-4-methyl-1-pyrimidin-2-yl-4,5,6,7-tetrahydro-1H-[1,2,3]triazolo[4,5-c]pyridine]
20.0 % control			C[C@@H]1Cc2c(nnn2-c2ccccn2)CN1C(=O)c1cccc(C(F)(F)F)c1Cl (single isomer, unassigned) [Example 119, 5-{[2-Chloro-3-(trifluoromethyl)phenyl]carbonyl}-(R*)-6-methyl-1-pyridin-2-yl-4,5,6,7-tetrahydro-1H-[1,2,3]triazolo[4,5-c]pyridine]
−0.2 % control			C[C@@H]1c2nnn(-c3cc[nH]n3)c2CCN1C(=O)c1cccc(C(F)(F)F)c1Cl (single isomer, unassigned) [Example 133, (R*)-(2-Chloro-3-(trifluoromethyl)phenyl)(4-methyl-1-(1H-pyrazol-5-yl)-6,7-dihydro-1H-[1,2,3]triazolo[4,5-c]pyridin-5(4H)-yl)methanone]
58.0 % control			C[C@@H]1c2nnn(-c3cnccn3)c2CCN1C(=O)c1ccc(F)c(Cl)c1Cl (single isomer, unassigned) [Example 143, (R*)-(2,3-Dichloro-4-fluorophenyl)(4-methyl-1-(pyrazin-2-yl)-6,7-dihydro-1H-[1,2,3]triazolo[4,5-c]pyridin-5(4H)-yl)methanone]
−8.9 % control			C[C@H]1c2nnn(-c3cccc(F)n3)c2CCN1C(=O)c1cccc(C(F)(F)F)c1Cl (single isomer, unassigned) [Example 147, (S*)-(2-Chloro-3-(trifluoromethyl)phenyl)(1-(6-fluoropyridin-2-yl)-4-methyl-6,7-dihydro-1H-[1,2,3]triazolo[4,5-c]pyridin-5(4H)-yl)methanone]
−9.6 % control			C[C@@H]1c2nnn(-c3cc(F)ccn3)c2CCN1C(=O)c1cccc(C(F)(F)F)c1Cl (single isomer, unassigned) [Example 148, (R*)-(2-Chloro-3-(trifluoromethyl)phenyl)(1-(4-fluoropyridin-2-yl)-4-methyl-6,7-dihydro-1H-[1,2,3]triazolo[4,5-c]pyridin-5(4H)-yl)methanone]
3.5 % control			C[C@H]1c2nnn(-c3cc(F)ccn3)c2CCN1C(=O)c1cccc(C(F)(F)F)c1Cl (single isomer, unassigned) [Example 149, (S*)-(2-Chloro-3-(trifluoromethyl)phenyl)(1-(4-fluoropyridin-2-yl)-4-methyl-6,7-dihydro-1H-[1,2,3]triazolo[4,5-c]pyridin-5(4H)-yl)methanone]
−1.4 % control			C[C@H]1c2nnn(-c3ncc(F)cn3)c2CCN1C(=O)c1cccc(C(F)(F)F)c1Cl (single isomer, unassigned) [Example 157, (S*)-(2-Chloro-3-(trifluoromethyl)phenyl)(1-(5-fluoropyrimidin-2-yl)-4-methyl-6,7-dihydro-1H-[1,2,3]triazolo[4,5-c]pyridin-5(4H)-yl)methanone]
0.6 % control			C[C@H]1Cc2c(nnn2-c2ncccc2F)CN1C(=O)c1cccc(Cl)c1Cl (single isomer, unassigned) [Example 166, (6S*)-5-[(2,3-Dichlorophenyl)carbonyl]-1-(3-fluoropyridin-2-yl)-6-methyl-4,5,6,7-tetrahydro-1H-[1,2,3]triazolo[4,5-c]pyridine]
4.2 % control			C[C@@H]1Cc2c(nnn2-c2ncccc2F)CN1C(=O)c1cccc(C(F)(F)F)c1Cl (single isomer, unassigned) [Example 167, (6R*)-5-{[2-Chloro-3-(trifluoromethyl)phenyl]carbonyl}-1-(3-fluoropyridin-2-yl)-6-methyl-4,5,6,7-tetrahydro-1H-[1,2,3]triazolo[4,5-c]pyridine]
−4.2 % control			C[C@H]1Cc2c(nnn2-c2ncccc2F)CN1C(=O)c1cccc(C(F)(F)F)c1Cl (single isomer, unassigned) [Example 168, (6S*)-5-{[2-Chloro-3-(trifluoromethyl)phenyl]carbonyl}-1-(3-fluoropyridin-2-yl)-6-methyl-4,5,6,7-tetrahydro-1H-[1,2,3]triazolo[4,5-c]pyridine]
95.0 % control			C[C@@H]1c2nnn(-c3ccn(C)n3)c2CCN1C(=O)c1cccc(C(F)(F)F)c1Cl (single isomer, unassigned) [Example 169, (R*)-(2-Chloro-3-(trifluoromethyl)phenyl)(4-methyl-1-(1-methyl-1H-pyrazol-3-yl)-6,7-dihydro-1H-[1,2,3]triazolo[4,5-c]pyridin-5(4H)-yl)methanone]
−5.7 % control			C[C@H]1c2nnn(-c3ccn(C)n3)c2CCN1C(=O)c1cccc(C(F)(F)F)c1Cl (single isomer, unassigned) [Example 170, (S*)-(2-Chloro-3-(trifluoromethyl)phenyl)(4-methyl-1-(1-methyl-1H-pyrazol-3-yl)-6,7-dihydro-1H-[1,2,3]triazolo[4,5-c]pyridin-5(4H)-yl)methanone]
−6.0 % control			C[C@H]1c2nnn(-c3ccn(CCF)n3)c2CCN1C(=O)c1cccc(C(F)(F)F)c1Cl (single isomer, unassigned) [Example 172, (S*)-(2-Chloro-3-(trifluoromethyl)phenyl)(1-(1-(2-fluoroethyl)-1H-pyrazol-3-yl)-4-methyl-6,7-dihydro-1H-[1,2,3]triazolo[4,5-c]pyridin-5(4H)-yl)methanone]
−4.7 % control	−4.7 % control		C[C@H]1c2nnn(-c3ncc(F)cn3)c2CCN1C(=O)c1cccc(C(F)(F)F)c1F (single isomer, unassigned) [Example 178, (S*)-(2-fluoro-3-(trifluoromethyl)phenyl)(1-(5-fluoropyrimidin-2-yl)-4-methyl-6,7-dihydro-1H-[1,2,3]triazolo[4,5-c]pyridin-5(4H)-yl)methanone]
−0.1 % control	−0.1 % control		Cc1cc(C)nc(-n2nnc3c2CCN(C(=O)c2cccc(C(F)(F)F)c2Cl)[C@@H]3C)n1 (single isomer, unassigned) [Example 181, (R*)-(2-chloro-3-(trifluoromethyl)phenyl)(1-(4,6-dimethylpyrimidin-2-yl)-4-methyl-6,7-dihydro-1H-[1,2,3]triazolo[4,5-c]pyridin-5(4H)-yl)methanone]
−1.2 % control	−1.2 % control		C[C@H]1Cc2c(nnn2-c2ncc(F)cn2)CN1C(=O)c1ccnc(C(F)(F)F)c1Cl (single isomer, unassigned) [Example 183, (R*)-(3-chloro-2-(trifluoromethyl)pyridin-4-yl)(1-(5-fluoropyrimidin-2-yl)-6-methyl-6,7-dihydro-1H-[1,2,3]triazolo[4,5-c]pyridin-5(4H)-yl)methanone]
−3.7 % control	−3.7 % control		Cc1ccnc(-n2nnc3c2CCN(C(=O)c2cccc(C(F)(F)F)c2Cl)[C@@H]3C)c1 (single isomer, unassigned) [Example 185, (R*)-(2-chloro-3-(trifluoromethyl)phenyl)(4-methyl-1-(4-methylpyridin-2-yl)-6,7-dihydro-1H-[1,2,3]triazolo[4,5-c]pyridin-5(4H)-yl)methanone]
−0.5 % control	−0.5 % control		Cc1ccnc(-n2nnc3c2CCN(C(=O)c2cccc(C(F)(F)F)c2Cl)[C@H]3C)c1 (single isomer, unassigned) [Example 186, (S*)-(2-chloro-3-(trifluoromethyl)phenyl)(4-methyl-1-(4-methylpyridin-2-yl)-6,7-dihydro-1H-[1,2,3]triazolo[4,5-c]pyridin-5(4H)-yl)methanone]
−0.6 % control	−0.6 % control		Cc1c(C(=O)N2Cc3nnn(-c4ncc(F)cn4)c3C[C@H]2C)ccnc1C(F)(F)F (single isomer, unassigned) [Example 187, (S*)-(1-(5-fluoropyrimidin-2-yl)-6-methyl-6,7-dihydro-1H-[1,2,3]triazolo[4,5-c]pyridin-5(4H)-yl)(3-methyl-2-(trifluoromethyl)pyridin-4-yl)methanone]

Compound	PBMC 10 μM (% control) (human PBMCs)	PBMC 10 μM (% control) (LPS 30 ng/ml + 0.5 mM Bz-ATP)	PBMC 1 μM (% control) (human PBMCs, test compound 1 μM)
CC1c2ncn(-c3ccccn3)c2CCN1C(=O)c1cccc(C(F)(F)F)c1F (single isomer, unassigned) [Example 42, (4R*)-5-{[2-Fluoro-3-(trifluoromethyl)phenyl]carbonyl}-4-methyl-1-pyridin-2-yl-4,5,6,7-tetrahydro-1H-imidazo[4,5-c]pyridine]	5.8 % control	5.8 % control	
